Results: PubChem BioAssay AID2060909 (Molecular Pharmacology Branch, DTP, NCI, 2025)
Several values for one entry are separate records, joined by “and”; a condition that tells them apart may be missing. Equal values may be shown once. Each block holds one molecule with its values, some of them ahead of it.

System: 362531-283-R-J2-PDC complex spheroid viability
Assay: Anticancer human tumor 362531-283-R-J2-PDC patient-derived colon adenocarcinoma cell line growth inhibition [RAS]
Conditions: for viability, T/C: stronger effect = lower value
Method in brief: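 Tumour cells grown as complex spheroids with HUVEC endothelial cells and mesenchymal stem cells, treated with RAS pathway inhibitor combinations. Each agent spans half-log steps from near clinical Cmax, or 10 microM where Cmax is unknown.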

[1] = curve of first compound, second compound 0.00316 µM
[2] = curve of first compound, second compound 0.01 µM
[3] = curve of first compound, second compound 0.0316 µM
[4] = curve of first compound, second compound 0.1 µM
[5] = curve of first compound, second compound 0.316 µM
[6] = curve of first compound, second compound 1 µM
[7] = second compound 0.00316 µM, first compound 0.00316 µM
[8] = second compound 0.00316 µM, first compound 0.01 µM
[9] = second compound 0.00316 µM, first compound 0.0316 µM
[10] = second compound 0.00316 µM, first compound 0.1 µM
[11] = second compound 0.01 µM, first compound 0.00316 µM
[12] = second compound 0.01 µM, first compound 0.01 µM
[13] = second compound 0.01 µM, first compound 0.0316 µM
[14] = second compound 0.01 µM, first compound 0.1 µM
[15] = second compound 0.0316 µM, first compound 0.00316 µM
[16] = second compound 0.0316 µM, first compound 0.01 µM
[17] = second compound 0.0316 µM, first compound 0.0316 µM
[18] = second compound 0.0316 µM, first compound 0.1 µM
[19] = second compound 0.1 µM, first compound 0.00316 µM
[20] = second compound 0.1 µM, first compound 0.01 µM
[21] = second compound 0.1 µM, first compound 0.0316 µM
[22] = second compound 0.1 µM, first compound 0.1 µM
[23] = second compound 0.316 µM, first compound 0.00316 µM
[24] = second compound 0.316 µM, first compound 0.01 µM
[25] = second compound 0.316 µM, first compound 0.0316 µM
[26] = second compound 0.316 µM, first compound 0.1 µM
[27] = second compound 1 µM, first compound 0.00316 µM
[28] = second compound 1 µM, first compound 0.01 µM
[29] = second compound 1 µM, first compound 0.0316 µM
[30] = second compound 1 µM, first compound 0.1 µM
[31] = second compound 0.00316 µM, first compound 0.316 µM
[32] = second compound 0.00316 µM, first compound 1 µM
[33] = second compound 0.01 µM, first compound 0.316 µM
[34] = second compound 0.01 µM, first compound 1 µM
[35] = second compound 0.0316 µM, first compound 0.316 µM
[36] = second compound 0.0316 µM, first compound 1 µM
[37] = second compound 0.1 µM, first compound 0.316 µM
[38] = second compound 0.1 µM, first compound 1 µM
[39] = second compound 0.316 µM, first compound 0.316 µM
[40] = second compound 0.316 µM, first compound 1 µM
[41] = second compound 1 µM, first compound 0.316 µM
[42] = second compound 1 µM, first compound 1 µM
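Also: spheroids exposed to the agents for 7 days before readout.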
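For viability, T/C in this document: luminescence viability as percent of DMSO vehicle control wells.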

SMILES: CC(C)n1nc(-c2ccc3oc(N)nc3c2)c2c(N)ncnc21 + C=CC(=O)N1CCN(c2nc(OCC3CCCN3C)nc3c(F)c(-c4nc(N)cc(C)c4C(F)(F)F)c(Cl)cc23)C(C)C1
- IC50 [1]: > 100 nM
- IC50 [2]: > 100 nM
- IC50 [3]: > 100 nM
- IC50 [4]: > 100 nM
- IC50 [5]: > 100 nM
- IC50 [6]: > 100 nM
- viability, T/C (second compound 0.00316 µM, first compound 0.000316 µM): 97.8%
- viability, T/C (second compound 0.00316 µM, first compound 0.001 µM): 91.8%
- viability, T/C [7]: 101%
- viability, T/C [8]: 89.2%
- viability, T/C [9]: 62.9%
- viability, T/C [10]: 97.1%
- viability, T/C (second compound 0.01 µM, first compound 0.000316 µM): 93.5%
- viability, T/C (second compound 0.01 µM, first compound 0.001 µM): 92.2%
- viability, T/C [11]: 105%
- viability, T/C [12]: 87.3%
- viability, T/C [13]: 54.9%
- viability, T/C [14]: 89.7%
- viability, T/C (second compound 0.0316 µM, first compound 0.000316 µM): 100%
- viability, T/C (second compound 0.0316 µM, first compound 0.001 µM): 95.9%
- viability, T/C [15]: 102%
- viability, T/C [16]: 80.7%
- viability, T/C [17]: 65.9%
- viability, T/C [18]: 101%
- viability, T/C (second compound 0.1 µM, first compound 0.000316 µM): 91.9%
- viability, T/C (second compound 0.1 µM, first compound 0.001 µM): 93.1%
- viability, T/C [19]: 99.6%
- viability, T/C [20]: 87%
- viability, T/C [21]: 86.2%
- viability, T/C [22]: 64.5%
- viability, T/C (second compound 0.316 µM, first compound 0.000316 µM): 107%
- viability, T/C (second compound 0.316 µM, first compound 0.001 µM): 106%
- viability, T/C [23]: 104%
- viability, T/C [24]: 106%
- viability, T/C [25]: 68.2%
- viability, T/C [26]: 82.7%
- viability, T/C (second compound 1 µM, first compound 0.000316 µM): 107%
- viability, T/C (second compound 1 µM, first compound 0.001 µM): 105%
- viability, T/C [27]: 97%
- viability, T/C [28]: 107%
- viability, T/C [29]: 49.6%
- viability, T/C [30]: 81.5%

SMILES: O=C(c1ccc(F)c(F)c1Nc1ccc(I)cc1F)N1CC(O)([C@@H]2CCCCN2)C1 + C=CC(=O)N1CCN(c2nc(OCC3CCCN3C)nc3c(F)c(-c4nc(N)cc(C)c4C(F)(F)F)c(Cl)cc23)C(C)C1
- IC50 [1]: 363 nM
- IC50 [2]: 399 nM
- IC50 [3]: 306 nM
- IC50 [4]: 368 nM
- IC50 [5]: 377 nM
- IC50 [6]: 349 nM
- viability, T/C [7]: 94.4%
- viability, T/C [8]: 111%
- viability, T/C [9]: 93.1%
- viability, T/C [10]: 84.8%
- viability, T/C [31]: 56.6%
- viability, T/C [32]: 4.22%
- viability, T/C [11]: 100%
- viability, T/C [12]: 95.3%
- viability, T/C [13]: 97%
- viability, T/C [14]: 83.9%
- viability, T/C [33]: 61.4%
- viability, T/C [34]: 6.87%
- viability, T/C [15]: 103%
- viability, T/C [16]: 99.2%
- viability, T/C [17]: 95.1%
- viability, T/C [18]: 80.8%
- viability, T/C [35]: 48.9%
- viability, T/C [36]: 10.1%
- viability, T/C [19]: 101%
- viability, T/C [20]: 97.5%
- viability, T/C [21]: 88.8%
- viability, T/C [22]: 79.6%
- viability, T/C [37]: 59.6%
- viability, T/C [38]: 4.51%
- viability, T/C [23]: 99.7%
- viability, T/C [24]: 97.6%
- viability, T/C [25]: 91.9%
- viability, T/C [26]: 81.9%
- viability, T/C [39]: 58.3%
- viability, T/C [40]: 6.58%
- viability, T/C [27]: 101%
- viability, T/C [28]: 94.7%
- viability, T/C [29]: 81.1%
- viability, T/C [30]: 79.7%
- viability, T/C [41]: 55.5%
- viability, T/C [42]: 8.33%

SMILES: CC(C)NCC(C(=O)N1CCN(c2ncnc3c2C(C)CC3O)CC1)c1ccc(Cl)cc1 (stereo not given)
- viability, T/C (compound 0.0316 µM): 103% [middle of 4 runs]
- viability, T/C (compound 0.1 µM): 103% [middle of 4 runs]
- viability, T/C (compound 0.316 µM): 103% [middle of 4 runs]
- viability, T/C (compound 1 µM): 101% [middle of 4 runs]
- viability, T/C (compound 3.16 µM): 98.5% and 102% (2×) and 98.2%
- viability, T/C (compound 10 µM): 98.2% [middle of 4 runs]
- IC50 (curve of compound): > 10000 nM

Further lines, with some results ahead:

- IC50 [1]: 129 nM
- IC50 [2]: 169 nM
- IC50 [3]: 154 nM
- IC50 [4]: 130 nM
- IC50 [5]: 180 nM
- IC50 [6]: 144 nM
SMILES: Nc1ccn(C2OC(CO)C(O)C2(F)F)c(=O)n1 (stereo not given) + C=CC(=O)N1CCN(c2nc(OCC3CCCN3C)nc3c(F)c(-c4nc(N)cc(C)c4C(F)(F)F)c(Cl)cc23)C(C)C1
- viability, T/C [7]: 107%
- viability, T/C [8]: 100%
- viability, T/C [9]: 81.2%
- viability, T/C [10]: 61.8%
- viability, T/C [31]: 22.7%
- viability, T/C [32]: 29.7%
- viability, T/C [11]: 93.5%
- viability, T/C [12]: 95.3%
- viability, T/C [13]: 80.9%
- viability, T/C [14]: 70%
- viability, T/C [33]: 21.7%
- viability, T/C [34]: 30.7%
- viability, T/C [15]: 93.5%
- viability, T/C [16]: 91%
- viability, T/C [17]: 87.7%
- viability, T/C [18]: 64.9%
- viability, T/C [35]: 23.6%
- viability, T/C [36]: 27%
- viability, T/C [19]: 94.9%
- viability, T/C [20]: 94.9%
- viability, T/C [21]: 77.4%
- viability, T/C [22]: 61%
- viability, T/C [37]: 23.6%
- viability, T/C [38]: 31.7%
- viability, T/C [23]: 93.8%
- viability, T/C [24]: 97.1%
- viability, T/C [25]: 89.4%
- viability, T/C [26]: 75.7%
- viability, T/C [39]: 23.3%
- viability, T/C [40]: 27.6%
- viability, T/C [27]: 105%
- viability, T/C [28]: 97.9%
- viability, T/C [29]: 78.9%
- viability, T/C [30]: 65.2%
- viability, T/C [41]: 25.1%
- viability, T/C [42]: 29.7%

- IC50 (curve of compound): 43.7 nM [middle of 4 runs]
SMILES: CCc1c2c(nc3ccc(O)cc13)-c1cc3c(c(=O)n1C2)COC(=O)[C@]3(O)CC
- viability, T/C (compound 0.000949 µM): 92.4% [middle of 4 runs]
- viability, T/C (compound 0.003 µM): 93.4% [middle of 4 runs]
- viability, T/C (compound 0.00949 µM): 74.5% [middle of 4 runs]
- viability, T/C (compound 0.03 µM): 61.8% [middle of 4 runs]
- viability, T/C (compound 0.0949 µM): 30.2% [middle of 4 runs]
- viability, T/C (compound 0.3 µM): 19.9% [middle of 4 runs]
